According to patent US9981963B2, “3-(1H-pyrazol-4-yl)-1H-pyrrolo[2,3-c]pyridine derivatives as NIK inhibitors” (Janssen Pharmaceutica NV, priority 2013, dated 2018):

What was measured:
[1] = molecular target: Recombinant Human NF-kappaB-inducing Kinase (NIK/MAP3K14) (Homo sapiens (Human), UniProt Q99558); assay: Biological Assay A2: inhibition of auto-phosphorylation of recombinant human NIK/MAP3K14 (AlphaScreen); type: biochemical; conditions: 25 microM ATP, 0.2 nM GST-tagged NIK/MAP3K14, 1 h at 25° C., averaged values, read-out: Alpha-Screen IC50
Experimental: Inhibition of Auto-phosphorylation of Recombinant Human NF-kappaB-inducing Kinase (NIK/MAP3K14) Activity (AlphaScreen®)
NIK/MAP3K14 auto-phosphorylation activity was measured using the AlphaScreen® (αscreen) format (Perkin Elmer). All compounds tested were dissolved in dimethyl sulfoxide (DMSO) and further dilutions were made in assay buffer. Final DMSO concentration was 1% (v/v) in assays. Assay buffer was 50 mM Tris pH 7.5 containing 1 mM EGTA (ethylene glycol tetraacetic acid), 1 mM DTT (dithiothreitol), 0.1 mM Na3VO4, 5 mM MgCl2, 0.01% Tween® 20. Assays were carried out in 384 well Alphaplates (Perkin Elmer). Incubations consisted of compound, 25 microM Adenosine-5′-triphosphate (ATP), and 0.2 nM NIK/MAP3K14. Incubations were initiated by addition of GST-tagged NIK/MAP3K14 enzyme, carried out for 1 h at 25° C. and terminated by addition of stop buffer containing anti-phospho-IKK Ser176/180 antibody. Protein A Acceptor and Glutathione-Donor beads were added before reading using an EnVision® Multilabel Plate Reader (Perkin Elmer). Signal obtained in the wells containing blank samples was subtracted from all other wells and IC50's were determined by fitting a sigmoidal curve to % inhibition of control versus Log10 compound concentration.

JJN-3 cells = assay: Biological Assay C: antiproliferative activity on JJN-3 cells (CellTiter-Glo); type: cell-based; conditions: Homo sapiens, 72 hr of treatment, averaged values
Experimental: (§1) Determination of Antiproliferative Activity on LP-1, L-363 and JJN-3 Cells
(§2) All compounds tested were dissolved in DMSO and further dilutions were made in culture medium. Final DMSO concentration was 0.3% (v/v) in cell proliferation assays. Viability was assessed using CellTiter-Glo cell viability assay kit (Promega). The human LP-1, L-363 and JJN-3 cells (DSMZ) were cultured in RPMI 1640 medium supplemented with 2 mM L-glutamine, and 10% fetal calf serum (PAA). Cells were routinely kept as suspension cells at 37° C. in a humidified 5% CO2 atmosphere. Cells were passaged at a seeding density of 0.2×10^6/ml twice a week. Cells were seeded in black tissue culture treated 96-well plates (Perkin Elmer). Densities used for plating ranged from 2,000 to 6,000 cells per well in a total volume of 75 μl medium. After twenty four hours, drugs and/or solvents were added (25 μl) to a final volume of 100 μl. Following 72 hr of treatment plates were removed from the incubator and allowed to equilibrate to room temperature for approx 10 min. 100 μl CellTiter-Glo reagent was added to each well that was then covered (Perkin Elmer Topseal) and shaken on plate shaker for 10 min. Luminescence was measured on a HTS Topcount (Perkin Elmer). Within an experiment, the results for each treatment were the mean of 2 replicate wells. For initial screening purposes, compounds were tested using a 9 point dilution curve (serial 1:3 dilutions). For each experiment, controls (containing no drug) and a blank incubation (containing cells read at the time of compound addition) were run in parallel. The blank value was subtracted from all control and sample values. For each sample, the mean value for cell growth (in relative light units) was expressed as a percentage of the mean value for cell growth of the control.

L-363 cells = assay: Biological Assay C: antiproliferative activity on L-363 cells (CellTiter-Glo); type: cell-based; conditions: Homo sapiens, 72 hr of treatment, averaged values
Experimental: as §1, §2

LP-1 cells = assay: Biological Assay C: antiproliferative activity on LP-1 cells (CellTiter-Glo); type: cell-based; conditions: Homo sapiens, 72 hr of treatment, averaged values
Experimental: as §1, §2

Sequence of Recombinant Human NF-kappaB-inducing Kinase (NIK/MAP3K14) (Q99558 whole entry): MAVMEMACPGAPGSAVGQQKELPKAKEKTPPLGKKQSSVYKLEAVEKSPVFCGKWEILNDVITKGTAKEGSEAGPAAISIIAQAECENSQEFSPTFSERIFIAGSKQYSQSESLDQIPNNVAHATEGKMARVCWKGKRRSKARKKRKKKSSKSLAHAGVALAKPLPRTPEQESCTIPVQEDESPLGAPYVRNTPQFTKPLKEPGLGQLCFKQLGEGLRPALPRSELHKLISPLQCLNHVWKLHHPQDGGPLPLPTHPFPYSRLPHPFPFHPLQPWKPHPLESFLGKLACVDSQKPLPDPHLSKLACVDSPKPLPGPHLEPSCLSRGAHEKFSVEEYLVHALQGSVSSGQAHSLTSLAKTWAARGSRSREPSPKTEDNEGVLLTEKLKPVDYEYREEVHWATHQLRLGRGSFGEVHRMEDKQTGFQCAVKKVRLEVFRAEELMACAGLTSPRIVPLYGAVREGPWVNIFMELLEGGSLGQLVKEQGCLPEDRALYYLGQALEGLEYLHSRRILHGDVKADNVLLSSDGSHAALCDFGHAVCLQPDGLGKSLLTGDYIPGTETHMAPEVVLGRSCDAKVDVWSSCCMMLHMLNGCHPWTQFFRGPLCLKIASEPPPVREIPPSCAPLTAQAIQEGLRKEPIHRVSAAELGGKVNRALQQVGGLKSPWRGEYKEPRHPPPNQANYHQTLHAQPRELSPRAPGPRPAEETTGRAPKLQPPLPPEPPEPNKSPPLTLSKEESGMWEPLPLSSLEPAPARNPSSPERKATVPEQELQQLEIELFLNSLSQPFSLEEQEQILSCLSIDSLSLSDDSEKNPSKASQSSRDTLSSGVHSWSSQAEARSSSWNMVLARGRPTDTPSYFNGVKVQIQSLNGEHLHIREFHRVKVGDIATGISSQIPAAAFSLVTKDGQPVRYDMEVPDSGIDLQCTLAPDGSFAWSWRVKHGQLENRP

Compound	IC50 [1] [nM]	EC50 (JJN-3 cells) [nM]	EC50 (L-363 cells) [nM]	EC50 (LP-1 cells) [nM]
[2H]c1n[nH]c([2H])c1-c1cn(C2CCN(C)CC2)c2c(C)nc(C#CC(O)(C([2H])([2H])[2H])C([2H])([2H])[2H])cc12 [Compound 44]	84	391	269	1540
[2H]c1n[nH]c([2H])c1-c1cn([C@H]2CCN(CCC(F)(F)F)C2)c2cnc(C#CC(O)(C([2H])([2H])[2H])C([2H])([2H])[2H])cc12 [Compound 42]	63	2220	1030	2670
CN1CCC(n2cc(-c3c[nH]nc3Cl)c3cc(C#CC(C)(C)O)ncc32)CC1 [Compound 41]	79	1310	478	6110
CCn1cc(-c2cn[nH]c2)c2cc(C#CC(C)(O)c3cc(C)on3)ncc21 (stereo not shown) [Compound 48]	14	621	350	6090
[2H]C([2H])([2H])C(O)(C#Cc1cc2c(-c3c[nH]nc3Cl)cn(C3CCN(C)CC3)c2c(C)n1)C([2H])([2H])[2H] [Compound 45]	111	415	277	1450
CC(C)CS(=O)(=O)n1cc(-c2cn[nH]c2)c2cc(C#CC(C)(C)O)ncc21 [Compound 26]	141	3870	3330	5020
CC(C)(O)C#Cc1cc2c(-c3cn[nH]c3)cn(C3CCN(CC(F)(F)F)CC3)c2cn1 [Compound 35]	23	820	439	2670
CCn1c(C#N)c(-c2cn[nH]c2)c2cc(C#CC(C)(C)O)ncc21 [Compound 39]	47	4610	3920	8000
[2H]c1n[nH]c([2H])c1-c1cn(CC)c2cnc(C#CC(C)(C)O)cc12 [Compound 40]	38	547	260	1950
CCn1cc(-c2cn[nH]c2)c2cc(C#CC(C)O)ncc21 (stereo not shown) [Compound 46]	13	530	343	709
CC(C)(O)C#Cc1cc2c(-c3cn[nH]c3)cn(S(=O)(=O)Cc3ccccc3)c2cn1 [Compound 27]	290	–	–	–
CCn1cc(-c2cn[nH]c2)c2cc(C#CC(C)(O)C3CC3)ncc21 (single isomer, unassigned) [Compound 49]	14	1300	861	1700
CCn1cc(-c2c[nH]nc2Cl)c2cc(C#CC(C)(C)O)ncc21 [Compound 38]	13	1660	1320	3200
CC(C)(O)C#Cc1cc2c(-c3cn[nH]c3)cn(C3CCN(CCF)CC3)c2cn1 [Compound 36]	63	1620	565	9590
[2H]c1n[nH]c([2H])c1-c1cn(C2CCN(C3CC3)CC2)c2cnc(C#CC(O)(C([2H])([2H])[2H])C([2H])([2H])[2H])cc12 [Compound 43]	44	354	127	976
CCn1cc(-c2c[nH]nc2NC)c2cc(C#CC(C)(C)O)ncc21 [Compound 37]	274	5660	4910	> 30000
